Assay results: ChEMBL document CHEMBL1124495 (1989)
Converted amounts (≈) assume the structure as drawn.

system: Escherichia coli; assay: Antibacterial activity carried out in vitro against Escherichia coli #311(MP); type: functional

Row | Structure (SMILES) | MIC [µg/mL]
1 | CCn1cc(C(=O)O)c(=O)c2c(F)c(F)c(N3CCOCC3)c(F)c21 | 2 (≈ 5.61 µM)
2 | CN1CCN(c2c(F)c(F)c3c(=O)c(C(=O)O)cn(-c4ccc(F)cc4)c3c2F)CC1 | 1 (≈ 2.3 µM)
3 | CCn1cc(C(=O)O)c(=O)c2c(F)c(F)c(N3CCCC3)c(F)c21 | 2 (≈ 5.88 µM)
4 | CCn1cc(C(=O)O)c(=O)c2c(N3CCCC3)c(F)c(N3CCCC3)c(F)c21 | 128 (≈ 327 µM)
5 | CCn1cc(C(=O)O)c(=O)c2cc(F)c(N3CCN(C)CC3)c(F)c21 | 0.06 (≈ 0.171 µM)
6 | CCn1cc(C(=O)O)c(=O)c2c(F)c(F)c(N3CCSCC3)c(F)c21 | 4 (≈ 10.7 µM)

system: Escherichia coli; assay: Antibacterial activity carried out in vitro against Escherichia coli ATCC 25922; type: functional

Row | Structure (SMILES) | MIC [µg/mL]
7 | CCn1cc(C(=O)O)c(=O)c2c(F)c(F)c(N3CCOCC3)c(F)c21 | 4 (≈ 11.2 µM)
8 | CN1CCN(c2c(F)c(F)c3c(=O)c(C(=O)O)cn(-c4ccc(F)cc4)c3c2F)CC1 | 2 (≈ 4.59 µM)
9 | CCn1cc(C(=O)O)c(=O)c2c(F)c(F)c(N3CCCC3)c(F)c21 | 2 (≈ 5.88 µM)
10 | CCn1cc(C(=O)O)c(=O)c2c(N3CCCC3)c(F)c(N3CCCC3)c(F)c21 | > 128
11 | CCn1cc(C(=O)O)c(=O)c2cc(F)c(N3CCN(C)CC3)c(F)c21 | 0.06 (≈ 0.171 µM)
12 | CCn1cc(C(=O)O)c(=O)c2c(F)c(F)c(N3CCSCC3)c(F)c21 | 4 (≈ 10.7 µM)

system: Escherichia coli; assay: Antibacterial activity carried out in vitro against Escherichia coli MOR 84-20; type: functional

Row | Structure (SMILES) | MIC [µg/mL]
13 | CCn1cc(C(=O)O)c(=O)c2c(F)c(F)c(N3CCOCC3)c(F)c21 | 4 (≈ 11.2 µM)
14 | CN1CCN(c2c(F)c(F)c3c(=O)c(C(=O)O)cn(-c4ccc(F)cc4)c3c2F)CC1 | 2 (≈ 4.59 µM)
15 | CCn1cc(C(=O)O)c(=O)c2c(F)c(F)c(N3CCCC3)c(F)c21 | 4 (≈ 11.8 µM)
16 | CCn1cc(C(=O)O)c(=O)c2c(N3CCCC3)c(F)c(N3CCCC3)c(F)c21 | > 128
17 | CCn1cc(C(=O)O)c(=O)c2cc(F)c(N3CCN(C)CC3)c(F)c21 | 0.12 (≈ 0.342 µM)
18 | CCn1cc(C(=O)O)c(=O)c2c(F)c(F)c(N3CCSCC3)c(F)c21 | 4 (≈ 10.7 µM)

system: Enterobacter cloacae; assay: Antibacterial activity carried out in vitro against Enterobacter cloacae VHG 84-39; type: functional

Row | Structure (SMILES) | MIC [µg/mL]
19 | CCn1cc(C(=O)O)c(=O)c2c(F)c(F)c(N3CCOCC3)c(F)c21 | 4 (≈ 11.2 µM)
20 | CN1CCN(c2c(F)c(F)c3c(=O)c(C(=O)O)cn(-c4ccc(F)cc4)c3c2F)CC1 | 4 (≈ 9.19 µM)
21 | CCn1cc(C(=O)O)c(=O)c2c(F)c(F)c(N3CCCC3)c(F)c21 | > 128
22 | CCn1cc(C(=O)O)c(=O)c2c(N3CCCC3)c(F)c(N3CCCC3)c(F)c21 | > 128
23 | CCn1cc(C(=O)O)c(=O)c2cc(F)c(N3CCN(C)CC3)c(F)c21 | 0.25 (≈ 0.712 µM)
24 | CCn1cc(C(=O)O)c(=O)c2c(F)c(F)c(N3CCSCC3)c(F)c21 | 8 (≈ 21.5 µM)

system: Klebsiella pneumoniae; assay: Antibacterial activity carried out in vitro against Klebsiella pneumoniae CMC 84-31; type: functional

Row | Structure (SMILES) | MIC [µg/mL]
25 | CCn1cc(C(=O)O)c(=O)c2c(F)c(F)c(N3CCOCC3)c(F)c21 | 4 (≈ 11.2 µM)
26 | CN1CCN(c2c(F)c(F)c3c(=O)c(C(=O)O)cn(-c4ccc(F)cc4)c3c2F)CC1 | 2 (≈ 4.59 µM)
27 | CCn1cc(C(=O)O)c(=O)c2c(F)c(F)c(N3CCCC3)c(F)c21 | > 128
28 | CCn1cc(C(=O)O)c(=O)c2c(N3CCCC3)c(F)c(N3CCCC3)c(F)c21 | > 128
29 | CCn1cc(C(=O)O)c(=O)c2cc(F)c(N3CCN(C)CC3)c(F)c21 | 0.25 (≈ 0.712 µM)
30 | CCn1cc(C(=O)O)c(=O)c2c(F)c(F)c(N3CCSCC3)c(F)c21 | 8 (≈ 21.5 µM)
31 | O=C(O)c1cn(C2CC2)c2cc(N3CCNCC3)c(F)cc2c1=O [CIPROFLOXACIN] | 0.03 (≈ 0.0905 µM)

system: Pseudomonas aeruginosa; assay: Antibacterial activity carried out in vitro against Pseudomonas aeruginosa K84-16; type: functional

Row | Structure (SMILES) | MIC [µg/mL]
32 | CCn1cc(C(=O)O)c(=O)c2c(F)c(F)c(N3CCOCC3)c(F)c21 | 64 (≈ 180 µM)
33 | CN1CCN(c2c(F)c(F)c3c(=O)c(C(=O)O)cn(-c4ccc(F)cc4)c3c2F)CC1 | 32 (≈ 73.5 µM)
34 | CCn1cc(C(=O)O)c(=O)c2c(F)c(F)c(N3CCCC3)c(F)c21 | > 128
35 | CCn1cc(C(=O)O)c(=O)c2c(N3CCCC3)c(F)c(N3CCCC3)c(F)c21 | > 128
36 | CCn1cc(C(=O)O)c(=O)c2cc(F)c(N3CCN(C)CC3)c(F)c21 | 4 (≈ 11.4 µM)
37 | CCn1cc(C(=O)O)c(=O)c2c(F)c(F)c(N3CCSCC3)c(F)c21 | 64 (≈ 172 µM)

system: Serratia marcescens; assay: Antibacterial activity carried out in vitro against Serratia marcescens MOR 84-41; type: functional

Row | Structure (SMILES) | MIC [µg/mL]
38 | CCn1cc(C(=O)O)c(=O)c2c(F)c(F)c(N3CCOCC3)c(F)c21 | 1 (≈ 2.81 µM)
39 | CN1CCN(c2c(F)c(F)c3c(=O)c(C(=O)O)cn(-c4ccc(F)cc4)c3c2F)CC1 | 2 (≈ 4.59 µM)
40 | CCn1cc(C(=O)O)c(=O)c2c(F)c(F)c(N3CCCC3)c(F)c21 | 0.5 (≈ 1.47 µM)
41 | CCn1cc(C(=O)O)c(=O)c2c(N3CCCC3)c(F)c(N3CCCC3)c(F)c21 | > 128
42 | CCn1cc(C(=O)O)c(=O)c2cc(F)c(N3CCN(C)CC3)c(F)c21 | 0.12 (≈ 0.342 µM)
43 | CCn1cc(C(=O)O)c(=O)c2c(F)c(F)c(N3CCSCC3)c(F)c21 | 2 (≈ 5.37 µM)
44 | O=C(O)c1cn(C2CC2)c2cc(N3CCNCC3)c(F)cc2c1=O [CIPROFLOXACIN] | 0.008 (≈ 0.0241 µM)

system: Staphylococcus aureus; assay: Antibacterial activity carried out in vitro against Staphylococcus aureus ATCC 29213; type: functional

Row | Structure (SMILES) | MIC [µg/mL]
45 | CCn1cc(C(=O)O)c(=O)c2c(F)c(F)c(N3CCOCC3)c(F)c21 | 1 (≈ 2.81 µM)
46 | CN1CCN(c2c(F)c(F)c3c(=O)c(C(=O)O)cn(-c4ccc(F)cc4)c3c2F)CC1 | 2 (≈ 4.59 µM)
47 | CCn1cc(C(=O)O)c(=O)c2c(F)c(F)c(N3CCCC3)c(F)c21 | 0.5 (≈ 1.47 µM)
48 | CCn1cc(C(=O)O)c(=O)c2c(N3CCCC3)c(F)c(N3CCCC3)c(F)c21 | > 128
49 | CCn1cc(C(=O)O)c(=O)c2cc(F)c(N3CCN(C)CC3)c(F)c21 | 0.5 (≈ 1.42 µM)
50 | CCn1cc(C(=O)O)c(=O)c2c(F)c(F)c(N3CCSCC3)c(F)c21 | 1 (≈ 2.69 µM)
51 | O=C(O)c1cn(C2CC2)c2cc(N3CCNCC3)c(F)cc2c1=O [CIPROFLOXACIN] | 1 (≈ 3.02 µM)

system: Staphylococcus aureus; assay: Antibacterial activity carried out in vitro against Staphylococcus aureus K82-26; type: functional

Row | Structure (SMILES) | MIC [µg/mL]
52 | CCn1cc(C(=O)O)c(=O)c2c(F)c(F)c(N3CCOCC3)c(F)c21 | 1 (≈ 2.81 µM)
53 | CN1CCN(c2c(F)c(F)c3c(=O)c(C(=O)O)cn(-c4ccc(F)cc4)c3c2F)CC1 | 2 (≈ 4.59 µM)
54 | CCn1cc(C(=O)O)c(=O)c2c(F)c(F)c(N3CCCC3)c(F)c21 | 0.5 (≈ 1.47 µM)
55 | CCn1cc(C(=O)O)c(=O)c2c(N3CCCC3)c(F)c(N3CCCC3)c(F)c21 | 8 (≈ 20.4 µM)
56 | CCn1cc(C(=O)O)c(=O)c2cc(F)c(N3CCN(C)CC3)c(F)c21 | 0.5 (≈ 1.42 µM)
57 | CCn1cc(C(=O)O)c(=O)c2c(F)c(F)c(N3CCSCC3)c(F)c21 | 1 (≈ 2.69 µM)
58 | O=C(O)c1cn(C2CC2)c2cc(N3CCNCC3)c(F)cc2c1=O [CIPROFLOXACIN] | 0.5 (≈ 1.51 µM)

system: Staphylococcus aureus; assay: Antibacterial activity carried out in vitro against Staphylococcus aureus Smith(MP); type: functional

Row | Structure (SMILES) | MIC [µg/mL]
59 | CCn1cc(C(=O)O)c(=O)c2c(F)c(F)c(N3CCOCC3)c(F)c21 | 1 (≈ 2.81 µM)
60 | CN1CCN(c2c(F)c(F)c3c(=O)c(C(=O)O)cn(-c4ccc(F)cc4)c3c2F)CC1 | 2 (≈ 4.59 µM)
61 | CCn1cc(C(=O)O)c(=O)c2c(F)c(F)c(N3CCCC3)c(F)c21 | 0.25 (≈ 0.735 µM)
62 | CCn1cc(C(=O)O)c(=O)c2c(N3CCCC3)c(F)c(N3CCCC3)c(F)c21 | 128 (≈ 327 µM)
63 | CCn1cc(C(=O)O)c(=O)c2cc(F)c(N3CCN(C)CC3)c(F)c21 | 0.5 (≈ 1.42 µM)
64 | CCn1cc(C(=O)O)c(=O)c2c(F)c(F)c(N3CCSCC3)c(F)c21 | 0.5 (≈ 1.34 µM)
65 | O=C(O)c1cn(C2CC2)c2cc(N3CCNCC3)c(F)cc2c1=O [CIPROFLOXACIN] | 0.12 (≈ 0.362 µM)

system: Staphylococcus aureus; assay: Antibacterial activity carried out in vitro against Staphylococcus aureus VGH 84-47; type: functional

Row | Structure (SMILES) | MIC [µg/mL]
66 | CCn1cc(C(=O)O)c(=O)c2c(F)c(F)c(N3CCOCC3)c(F)c21 | 1 (≈ 2.81 µM)
67 | CN1CCN(c2c(F)c(F)c3c(=O)c(C(=O)O)cn(-c4ccc(F)cc4)c3c2F)CC1 | 4 (≈ 9.19 µM)
68 | CCn1cc(C(=O)O)c(=O)c2c(F)c(F)c(N3CCCC3)c(F)c21 | 0.25 (≈ 0.735 µM)
69 | CCn1cc(C(=O)O)c(=O)c2c(N3CCCC3)c(F)c(N3CCCC3)c(F)c21 | 8 (≈ 20.4 µM)
70 | CCn1cc(C(=O)O)c(=O)c2cc(F)c(N3CCN(C)CC3)c(F)c21 | 0.5 (≈ 1.42 µM)
71 | CCn1cc(C(=O)O)c(=O)c2c(F)c(F)c(N3CCSCC3)c(F)c21 | 1 (≈ 2.69 µM)
72 | O=C(O)c1cn(C2CC2)c2cc(N3CCNCC3)c(F)cc2c1=O [CIPROFLOXACIN] | 1 (≈ 3.02 µM)

system: Enterococcus faecalis; assay: Antibacterial activity carried out in vitro against Streptococcus faecalis UCI 85-30; type: functional

Row | Structure (SMILES) | MIC [µg/mL]
73 | CCn1cc(C(=O)O)c(=O)c2c(F)c(F)c(N3CCOCC3)c(F)c21 | 32 (≈ 89.8 µM)
74 | CN1CCN(c2c(F)c(F)c3c(=O)c(C(=O)O)cn(-c4ccc(F)cc4)c3c2F)CC1 | 64 (≈ 147 µM)
75 | CCn1cc(C(=O)O)c(=O)c2c(F)c(F)c(N3CCCC3)c(F)c21 | > 128
76 | CCn1cc(C(=O)O)c(=O)c2c(N3CCCC3)c(F)c(N3CCCC3)c(F)c21 | > 128
77 | CCn1cc(C(=O)O)c(=O)c2cc(F)c(N3CCN(C)CC3)c(F)c21 | 8 (≈ 22.8 µM)
78 | CCn1cc(C(=O)O)c(=O)c2c(F)c(F)c(N3CCSCC3)c(F)c21 | 32 (≈ 85.9 µM)
79 | O=C(O)c1cn(C2CC2)c2cc(N3CCNCC3)c(F)cc2c1=O [CIPROFLOXACIN] | 2 (≈ 6.04 µM)
